Tests used:
[1] = acute toxicity in mice; settings: mouse, in vivo, po, orally, suspended in 10% gum arabic solution, 6 days observation, method of Litchfield-Wilcoxon
Method: With respect to the 3-(1H-tetrazol-5-yl)-coumarin derivatives obtained in Examples 1 to 12, there was tested acute toxicity in mice.
After normal female Slc: ddy mice 4 weeks old were purchased and fed preliminarily in this lavoratory for a week, these mice weighing 25-27 g. were used in the test. The present compounds to be tested, were suspended in a 10% gum arabic solution and administered orally […]. body weight to mice. Each dose level was given to a group of ten animals and the survivors were kept under observation for 6 days. The numbers of dead animals were counted and the LD50 values in mg./kg. body weight were calculated by the method of Litchfield-Wilcoxon.

[2] = system: passive cutaneous anaphylaxis (PCA) mediated by homocytotropic antibodies (HTA); test: antiallergic activity: passive cutaneous anaphylaxis (PCA) mediated by homocytotropic antibodies (HTA) in rats; assay type: in vivo, rat (Wister); settings: Rattus norvegicus, given orally 30 minutes before antigen challenge, minimum dose that decreased statistically significantly the amount of leaked dye comparing with control, 72 hr. PCA, read-out: MED
Method: With respect to the 3-(1H-tetrazol-5-yl)-coumarin derivatives obtained in Examples 1 to 12, there was tested antiallergic activity concerning passive cutaneous anaphylaxis (PCA) mediated by homocytotropic antibodies (HTA) in rats.
2,4-Dinitrophenyl-coupled ascaris extract (DNP-As) used as antigen, was prepared according to the methods of Strejan et al [cf. J. Immunol., Vol. 98, 893(1967)] and Eisen [cf. J. Amer. Chem. Soc., Vol. 75, 4593(1953)]. Antisera containing HTA were prepared in rats according to the method of Tada and Okumura [cf, J. Immunol., Vol. 106, 1002(1971)] as follows:
Wister rats weighing 180 to 200 g. were splenectomized and several days later immunized by injecting into all four footpads a total of 1 mg. of DNP-As mixed with 10^10 Bordetella pertussis. After 5 days, 0.5 mg. of DNP-As alone was injected subcutaneously into the back of rats. Eight days after the first immunization, blood was collected by aortic puncture under ether anaesthesea and antisera obtained by these procedures were pooled and stored at -80° C.
The titer of the pooled autiserum was determined in rats by the 72 hr. PCA which method was described in the following item (ii), i.e. the highest dilution of antiserum producing a diameter of approximately 5 mm. was usually 1:500.
Normal wister rats weighing 140 to 160 g. were sensitized passively by injection intradermal on the shaved back skin 0.05 ml. of the diluted antisera (1:30). After 72 hours, the animals were injected intravenously 1 ml. of physiological salt solution containing 2 mg. DNP-As and 2.5 mg. Evans' blue.
The present compounds to be tested were given orally 30 minutes before antigen challenge. The animals were exsanguinated 30 minutes after challenge with the antigens and the skins were exfoliated. The intensities of PCA were evaluated by measuring the amount of leaked dye. The amount of dye leaked as a result of PCA was extracted according to the method of Harada et al [cf. Jpn.

SMILES	LD50 at 144 h [1] [mg/kg]	minimal effective dose [2] [mg/kg]
O=c1oc2c(OCCCO)cccc2cc1-c1nnn[nH]1 [Ex. 1, 8-(3-Hydroxypropoxy)-3-(1H-tetrazol-5-yl)coumarin]	> 2000	–
COCCOc1cccc2cc(-c3nnn[nH]3)c(=O)oc12 [Ex. 2, 8-(3-Oxabutoxy)-3-(1H-tetrazol-5-yl)coumarin]	1500 to 2000	1.56
CCOCCOc1cccc2cc(-c3nnn[nH]3)c(=O)oc12 [Ex. 3, 8-(3-Oxapentyloxy)-3-(1H-tetrazol-5-yl)coumarin]	1500	0.39
CCCOCCOc1cccc2cc(-c3nnn[nH]3)c(=O)oc12 [Ex. 4, 8-(3-Oxahexyloxy)-3-(1H-tetrazol-5-yl)coumarin]	1500 to 2000	1.56
CC(C)OCCOc1cccc2cc(-c3nn[nH]n3)c(=O)oc12 [Ex. 5]	1500	6.25
CCCCOCCOc1cccc2cc(-c3nnn[nH]3)c(=O)oc12 [Ex. 6, 8-(3-Oxaheptyloxy)-3(1H-tetrazol-5-yl)coumarin]	> 2000	6.25
CC(C)COCCOc1cccc2cc(-c3nnn[nH]3)c(=O)oc12 [Ex. 7, 8-(5-Methyl-3-oxahexyloxy)-3-(1H-tetrazol-5-yl)coumarin]	> 2000	6.25
CCOCCCOc1cccc2cc(-c3nnn[nH]3)c(=O)oc12 [Ex. 8, 8-(4-Oxahexyloxy)-3-(1H-tetrazol-5-yl)coumarin]	> 2000	6.25
CCOCCCCOc1cccc2cc(-c3nnn[nH]3)c(=O)oc12 [Ex. 9, 8-(5-Oxaheptyloxy)-3-(1H-tetrazol-5-yl)coumarin]	> 2000	0.39
C=CCOCCOc1cccc2cc(-c3nnn[nH]3)c(=O)oc12 [Ex. 10, 8-(3-Oxa-5-hexenyloxy)-3-(1H-tetrazol-5-yl)-coumarin]	1500 to 2000	6.25
CCOCCOCCOc1cccc2cc(-c3nn[nH]n3)c(=O)oc12 [Ex. 11, 8-(3,6-Dioxaoctyloxy)-3-(1-H-tetrazol-5-yl)-coumarin]	> 2000	1.56
O=c1oc2c(OCCOc3ccccc3)cccc2cc1-c1nnn[nH]1 [Ex. 12, 8-(2-Phenoxyethyloxy)-3-(1H-tetrazol-5-yl)-coumarin]	> 2000	1.56

From patent US4406908A, “Tetrazolylcoumarin derivatives and antiallergic compositions containing the same” (Kakenyaku Kako Co., Ltd., priority 1980, dated 1983)
